From patent US20170130064A1, “NOVEL POLYSILOXANE-BASED FOULING-RELEASE COATS COMPRISING POLY(OXYALKYLENE)-MODIFIED ALCOHOLS” (HEMPEL A/S, priority 2014, published 2017)
Where two headings read alike, the source gives them in different places. Marks after values point to notes of the source that are not given here.

What was measured:
[1] = From supplier data sheet; cited from earlier work
[2] = Surface tension above critical micelle concentration in water (pendant drop method); format: physicochemical; conditions: 5 wt % of the compound in demineralized water, picture 5 seconds after drop
Procedure: The surface tension of a liquid/air interface can be determined by the “pendant drop method” as described in “Encyclopedia of Surface and Colloid Science” by Marcel Dekker, 2002.
Samples were prepared as 5 wt % of the compound in demineralized water mixed in a 50 mL PE bottle. At 5 wt % it is ensured that concentrations are well above the critical micelle concentration. The samples were left over-night on a shaking table to ensure saturation and/or mixing. The measurements by “pendant drop method” were performed with DataPhysics OCA-15 pus, Dynamic Contact Angle, using software SCA202 V 4.5.8. The needle was a Disposable needle SNP-D 165/137, and the volume drop was 15 microliters.
The picture from which the surface tension is calculated is taken 5 seconds after the drop is forced out of the syringe.

| Substance | Surface tension [1] | Surface tension [2] [mN/m] |
| --- | --- | --- |
| PEG-6 decyl alcohol | 26.6* mN/m | – |
| PEG-6 stearate | – | 43 |
| PEG-7 lauryl alcohol | 29* mN/m | – |
| PEG-8 branched C12-C14 secondary alcohol | 27* mN/m | – |
| PEG-11 branched C12-C14 secondary alcohol | 30* mN/m | – |
| PEG-12 nonylphenol, branched | – | 32 |
| PEG-12 stearate | – | 35 |
| PEG-20 oleyl ether | – | 36 |
| PEG-20 sorbitan monostearate | – | 43 |
| PEG-22 oleyl alcohol | 44* mN/m | – |
